According to patent publication US7696201B2, “Modulators of muscarinic receptors” (Vertex Pharmaceuticals Incorporated, priority 2006, dated 2010):

Tests used:
Assay type in all cases: cell-based
M4 muscarinic receptor = biological target: T1, M4 muscarinic receptor (Homo sapiens, UniProt P08173); experiment: Functional mobilization of intracellular calcium (FLIPR), M4-CHO cells; conditions: for Emax: 100% efficacy is the maximum response obtained with the Carbachol control; for M4 Activity: CHO cells expressing M4, calcium mobilization
T1 construct: expressed in transfected cells; host or cells: CHO (M4-CHO)
T1 sequence (P08173 1-479): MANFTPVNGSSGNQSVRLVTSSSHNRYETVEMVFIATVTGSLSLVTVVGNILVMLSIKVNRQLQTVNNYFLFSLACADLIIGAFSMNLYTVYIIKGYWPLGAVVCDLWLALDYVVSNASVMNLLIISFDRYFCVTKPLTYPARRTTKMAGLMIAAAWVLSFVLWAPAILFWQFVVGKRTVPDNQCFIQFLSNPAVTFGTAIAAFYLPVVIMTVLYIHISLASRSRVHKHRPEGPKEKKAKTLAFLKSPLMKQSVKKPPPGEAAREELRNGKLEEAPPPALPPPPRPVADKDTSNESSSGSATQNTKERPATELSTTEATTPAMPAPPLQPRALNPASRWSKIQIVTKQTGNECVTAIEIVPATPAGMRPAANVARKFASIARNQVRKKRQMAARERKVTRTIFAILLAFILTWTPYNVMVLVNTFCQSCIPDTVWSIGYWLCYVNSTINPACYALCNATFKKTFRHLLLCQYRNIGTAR
Description: (§1) Functional Mobilization of Intracellular Calcium to Determine Muscarinic Receptor Activity:
(§2) CHO cells expressing muscarinic receptors (M1 to M5) are grown as monolayers in tissue culture flasks at 37° C. in a humidified atmosphere containing 5% CO2 and passaged every 3-5 days. The growth media is Dulbecco's modified eagles medium (DMEM, Gibco Cat# 12430-054), containing 25 mM Hepes and supplemented with Fetal Bovine Serum (Hyclone, cat# SH30071.03), 0.1 mM of MEM non-essential amino acids (GIBCO, Cat# 11140-050), 1 mM MEM Sodium Pyruvate (GIBCO Cat# 11360-070) and 100 units/ml of Penicillin G and 100 μg/ml of Streptomycin (GIBCO Cat# 15140-122). The recombinant muscarinic receptor cell lines are grown under antibiotic pressure with media containing 25 μg/ml zeocin and 500 μg/ml G418 (M1-CHO), 4 μg/ml puromycin, 50 μg/ml zeocin and 2.5 μg/ml blasticidin (M2 and M4-CHO) or 50 μg/ml zeocin and 4 μg/ml puromycin (M3 and M5-CHO).
(§3) Cells are harvested at 80-90% confluence using Versene (GIBCO Cat# 15040-066), collected by centrifugation and seeded 18-24 hours prior to running the calcium assay at a density of 5,000-10,000 cells/well in […], clear-bottomed 384-well plates (BD Biocoat, poly-D-lysine, Cat#356663). The day of the experiment, the cells are washed with a plate washer (Bioteck Instruments, ELX 405) using Bath 1 buffer (140-mM NaCl, 4.5-mM KCl, 2-mM CaCl2, 1-mM MgCl2, 10-mM Hepes-Na, 10-mM Glucose, pH 7.4, with NaOH) containing 1 mM Probenecid. Next, the calcium dye Fluo-3 (25 μl/well of Fluo-3 AM at 4 μM, Molecular Probes F-1241, in Bath 1 buffer containing 1 mM Probenecid) is added to the 25 μl of Bath 1 remaining in each well after the plate wash and the dye is loaded at 37° C. in the tissue culture incubator for 60-90 min. The fluorescent dye is removed using the plate washer with Bath 1 containing 1 mM Probenecid, leaving 25 μl/well of this solution after the wash. Alternatively, cells can be loaded with the calcium indicator from Molecular Devices (Calcium 3 Assay Reagents, Cat # R7181) adding 5 μl of a 5× solution dye in Bath 1 containing 1 mM Probenecid (10 ml per dye flask cat# R7182 to generate a solution 20×) to 20 μl of the same buffer. After loading for 60 min, the experiment can be run without having to remove the dye.
(§4) Compounds are prepared at a 2× fold concentration in a 96-well plate (round bottom, Costar Corning cat# 3656), by reconstituting the pre-spotted compounds in bath 1 containing 1 mM probenecid. The final concentration DMSO is 0.5%, and the amount of DMSO is normalized across the assay plate. To determine an agonist action of the compounds on muscarinic receptors, the reconstituted compounds are added (25 μl compound/well) to the cell assay plate (containing 25 μl/well) using the multi-channel robotic system of the FLIPR 3 Instrument (Molecular Devices, Sunnyvale, Calif.). To determine a functional inhibitory action of the compounds on muscarinic receptors, the reconstituted compounds are added (25 μl compound/well) to the assay plate and pre-incubated for 15 min prior to adding 25 μl of Carbachol at 3× the EC80 for each muscarinic subtype. Alternatively, the compounds can be co-applied simultaneously with the agonist. In both assay modes, the fluorescence is recorded for 60 sec (excitation wavelength is […] and emission wavelength 540 nm) using the FLIPR 3 instrument.
(§5) The potency, efficacy and selectivity of the muscarinic compounds were evaluated by screening the compound activity across the whole family (M1 to M5 cells). Compounds were also screened for activity on other proteins such as other GPCRs and ion channels to determine selectivity on M4 receptors.
(§6) Examples of activities and efficacies of the muscarinic compounds of formulae (I, Ia, Ib, Ic, and Id) on modulating M1 and M4 receptors are shown below in Table 3. […]

M3 muscarinic receptor = biological target: T2, M3 muscarinic receptor (Homo sapiens, UniProt P20309); experiment: Functional mobilization of intracellular calcium (FLIPR), M3-CHO cells; conditions: for Emax: 100% efficacy is the maximum response obtained with the Carbachol control; for M3 Activity: CHO cells expressing M3, calcium mobilization
T2 construct: expressed in transfected cells; host or cells: CHO (M3-CHO)
Description: as §1, §2, §3, §4, §5, §6

M2 muscarinic receptor = biological target: T3, M2 muscarinic receptor (Homo sapiens, UniProt P08172); experiment: Functional mobilization of intracellular calcium (FLIPR), M2-CHO cells; conditions: for Emax: 100% efficacy is the maximum response obtained with the Carbachol control; for M2 Activity: CHO cells expressing M2, calcium mobilization
T3 construct: expressed in transfected cells; host or cells: CHO (M2-CHO)
T3 sequence (P08172 1-466): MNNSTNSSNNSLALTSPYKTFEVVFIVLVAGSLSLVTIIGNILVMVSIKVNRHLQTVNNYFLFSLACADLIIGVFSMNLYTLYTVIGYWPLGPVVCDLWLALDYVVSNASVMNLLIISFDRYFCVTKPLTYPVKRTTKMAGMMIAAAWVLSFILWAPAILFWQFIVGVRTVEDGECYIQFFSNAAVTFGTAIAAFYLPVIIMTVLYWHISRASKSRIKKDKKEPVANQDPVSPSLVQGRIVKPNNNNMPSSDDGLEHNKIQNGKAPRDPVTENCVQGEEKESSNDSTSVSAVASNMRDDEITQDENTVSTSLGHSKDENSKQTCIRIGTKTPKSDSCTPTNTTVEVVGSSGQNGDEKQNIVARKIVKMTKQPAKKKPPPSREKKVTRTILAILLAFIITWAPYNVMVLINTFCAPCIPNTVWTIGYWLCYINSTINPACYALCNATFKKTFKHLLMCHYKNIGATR
Description: as §1, §2, §3, §4, §5, §6

M1 muscarinic receptor = biological target: T4, M1 muscarinic receptor (Homo sapiens, UniProt P11229); experiment: Functional mobilization of intracellular calcium (FLIPR), M1-CHO cells; conditions: for Emax: 100% efficacy is the maximum response obtained with the Carbachol control; for M1 Activity: CHO cells expressing M1, calcium mobilization
T4 construct: expressed in transfected cells; host or cells: CHO (M1-CHO)
T4 sequence (P11229 1-460): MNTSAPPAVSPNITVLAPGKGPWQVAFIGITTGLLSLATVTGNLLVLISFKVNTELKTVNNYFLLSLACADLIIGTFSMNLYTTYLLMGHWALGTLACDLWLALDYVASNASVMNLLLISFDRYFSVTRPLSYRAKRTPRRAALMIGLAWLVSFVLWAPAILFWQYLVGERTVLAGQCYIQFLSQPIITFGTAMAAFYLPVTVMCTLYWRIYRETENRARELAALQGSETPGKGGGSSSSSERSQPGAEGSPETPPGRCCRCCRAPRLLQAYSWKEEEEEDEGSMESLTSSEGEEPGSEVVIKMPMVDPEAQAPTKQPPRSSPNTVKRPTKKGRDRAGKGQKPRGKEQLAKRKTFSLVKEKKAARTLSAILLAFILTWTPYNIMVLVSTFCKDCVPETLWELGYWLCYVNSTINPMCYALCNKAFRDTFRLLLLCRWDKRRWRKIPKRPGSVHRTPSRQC
Description: as §1, §2, §3, §4, §5, §6

T2 sequence (P20309 whole entry): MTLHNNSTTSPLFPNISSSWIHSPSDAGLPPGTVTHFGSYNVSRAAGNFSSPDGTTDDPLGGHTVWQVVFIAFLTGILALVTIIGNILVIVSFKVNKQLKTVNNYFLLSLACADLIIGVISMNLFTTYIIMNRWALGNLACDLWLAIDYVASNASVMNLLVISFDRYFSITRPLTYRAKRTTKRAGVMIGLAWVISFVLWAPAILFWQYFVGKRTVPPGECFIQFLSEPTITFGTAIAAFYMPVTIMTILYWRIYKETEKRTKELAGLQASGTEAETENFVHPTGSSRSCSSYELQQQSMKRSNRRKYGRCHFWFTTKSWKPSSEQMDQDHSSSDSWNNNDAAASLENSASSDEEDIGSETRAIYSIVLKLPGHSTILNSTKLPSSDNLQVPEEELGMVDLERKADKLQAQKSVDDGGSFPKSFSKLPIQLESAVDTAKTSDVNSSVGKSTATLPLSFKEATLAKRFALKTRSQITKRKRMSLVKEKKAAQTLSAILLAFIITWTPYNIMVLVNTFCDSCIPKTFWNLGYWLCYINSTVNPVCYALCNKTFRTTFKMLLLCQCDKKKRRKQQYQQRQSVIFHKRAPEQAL

Structure (SMILES) | Emax (M4 muscarinic receptor) [%] | M4 Activity (M4 muscarinic receptor) | Emax (M3 muscarinic receptor) [%] | M3 Activity (M3 muscarinic receptor) | Emax (M2 muscarinic receptor) [%] | M2 Activity (M2 muscarinic receptor) | Emax (M1 muscarinic receptor) [%] | M1 Activity (M1 muscarinic receptor)
CCON=C1CCC(N2CCC3(CC2)OC(=O)Nc2ccccc23)CC1 (stereo not drawn) [Compound 3, 1′-(4-(ethoxyimino)cyclohexyl)spiro[benzo[d][1,3]oxazine-4,4′-piperidin]-2(1H)-one] | 25 to 100 | +++ (activity was measured to be less than 2.0 μM) | 25 to 100 | +++ (activity was measured to be less than 2.0 μM) | 25 to 100 | +++ (activity was measured to be less than 2.0 μM) | 25 to 100 | +++ (activity was measured to be less than 2.0 μM)
O=C1Nc2ccccc2C2(CCN(C3CCCCCC3)CC2)O1 [Compound 5, 1′-cycloheptylspiro[benzo[d][1,3]oxazine-4,4′-piperidin]-2(1H)-one] | 25 to 100 | +++ (activity was measured to be less than 2.0 μM) | < 25 | + (activity was measured to be greater than 5.0 μM) | 25 to 100 | + (activity was measured to be greater than 5.0 μM) | 25 to 100 | +++ (activity was measured to be less than 2.0 μM)
O=C1Nc2ccccc2C2(CCN(CC3CCCOC3)CC2)O1 (stereo not drawn) [Compound 11] | 25 to 100 | +++ (activity was measured to be less than 2.0 μM) | < 25 | + (activity was measured to be greater than 5.0 μM) | 25 to 100 | + (activity was measured to be greater than 5.0 μM) | 25 to 100 | +++ (activity was measured to be less than 2.0 μM)
CCOC(=O)N1CCC(CN2CCC3(CC2)OC(=O)Nc2ccccc23)CC1 [Compound 13, ethyl-4-((2-oxo-1,2-dihydrospiro[benzo[d][1,3]oxazine-4,4′-piperidine]-1′-yl)methyl)piperidine-1-carboxylate] | 25 to 100 | +++ (activity was measured to be less than 2.0 μM) | 25 to 100 | +++ (activity was measured to be less than 2.0 μM) | 25 to 100 | +++ (activity was measured to be less than 2.0 μM) | 25 to 100 | +++ (activity was measured to be less than 2.0 μM)
O=C1Nc2ccccc2C2(CCN(CC3CCCCC3)CC2)O1 [Compound 27] | 25 to 100 | +++ (activity was measured to be less than 2.0 μM) | < 25 | + (activity was measured to be greater than 5.0 μM) | 25 to 100 | ++ (activity was measured to be from 2.0 μM to 5.0 μM) | 25 to 100 | +++ (activity was measured to be less than 2.0 μM)
CCC(C)(C)C1CCC(N2CCC3(CC2)OC(=O)Nc2ccccc23)CC1 (stereo not drawn) [Compound 35] | < 25 | + (activity was measured to be greater than 5.0 μM) | < 25 | + (activity was measured to be greater than 5.0 μM) | < 25 | + (activity was measured to be greater than 5.0 μM) | 25 to 100 | +++ (activity was measured to be less than 2.0 μM)
O=C1Nc2ccccc2C2(CCN(C3CCNCC3)CC2)O1 [Compound 49, 1′-(piperidin-4-yl)spiro[benzo[d][1,3]oxazine-4,4′-piperidin]-2(1H)-one] | < 25 | + (activity was measured to be greater than 5.0 μM) | < 25 | + (activity was measured to be greater than 5.0 μM) | < 25 | + (activity was measured to be greater than 5.0 μM) | 25 to 100 | + (activity was measured to be greater than 5.0 μM)
CCOC(=O)N1CCC(N2CCC3(CC2)OC(=O)Nc2ccccc23)CC1 [Compound 62] | 25 to 100 | +++ (activity was measured to be less than 2.0 μM) | 25 to 100 | +++ (activity was measured to be less than 2.0 μM) | 25 to 100 | +++ (activity was measured to be less than 2.0 μM) | 25 to 100 | +++ (activity was measured to be less than 2.0 μM)
O=C1CCC(N2CCC3(CC2)OC(=O)Nc2ccccc23)CC1 [Compound 64, 1′-(4-oxocyclohexyl)spiro[benzo[d][1,3]oxazine-4,4′-piperidin]-2(1H)-one] | 25 to 100 | ++ (activity was measured to be from 2.0 μM to 5.0 μM) | < 25 | + (activity was measured to be greater than 5.0 μM) | 25 to 100 | + (activity was measured to be greater than 5.0 μM) | 25 to 100 | ++ (activity was measured to be from 2.0 μM to 5.0 μM)
